In patent publication US9938222B2 (BRISTOL-MYERS SQUIBB COMPANY, priority 2014, dated 2018):
pEC50: −log10 of the molar value.

Biological target: human GPR120 (Homo sapiens (Human), UniProt Q5NUL3)
Assay: GPR120 pERK AlphaScreen SureFire Assay (human GPR120 pERK assay)
Format: cell-based
Conditions: CHO cells stably transfected with short form of human GPR120
Text: GPR120 activity was monitored by measuring phosphorylation of ERK (pERK), since G protein receptors are known to activate the ERK signaling cascade either directly and/or through recruitment of arrestin that serves as a scaffold for downstream signaling events.
GPR120 pERK AlphaScreen SureFire Assay
The human and mouse GPR120-mediated intracellular phosphorylated ERK assays were established using CHOA12 cells stably transfected with the short form of human or mouse GPR120 receptor. Cells were cultured in growth medium consisting of F-12 media (Invitrogen Cat. #11765) with 5% Charcoal/Dextran FBS (Invitrogen Cat. #12676-029), 500 μg/mL GENETICIN® (Life Technologies Cat. #10131-027) and 250 μg/mL Zeocin (Invitrogen Cat. #R250-01). Cells were cryo-preserved at a concentration of 2×10^7 cells/mL, in 90% Charcoal/Dextran FBS and 10% DMSO, and frozen in liquid nitrogen at a low passage number.
For the pERK assay, 2×10^7 cells/mL cryopreserved human and mouse cells were thawed rapidly in a 37° C. water bath and added to a T-225 flask containing 50 mL growth medium. The flasks were placed in a tissue culture incubator overnight (37° C., 5% CO2). The next day, cells were harvested with trypsin (Gibco Cat. #25300-054), resuspended in serum-containing growth medium and counted using a Cellometer and volume adjusted to a concentration of 0.6×10^6 cells/mL. Cells were plated into 384-well clear bottom tissue culture plates (BD Cat. #353962) at 50 μL/well, for a density of 30,000 cells/well using a MULTIDROP® and incubated for 16-18 hours (overnight) at 37° C. with 5% CO2. The next day, cells were serum starved in 30 μL of F-12 media without any serum or antibiotics for 2 hours at 37° C.
Test compounds were 3-fold, 11-point serially diluted in DMSO in a REMP assay plate (Matrix Cat. #4307) by Tecan and 5 μL was transferred into an ECHO source plate (Labcyte Cat. #LC-0200). Cells were then stimulated with 50 nL of compound dilutions using ECHO liquid handler for 7 min at 37° C. Compounds ranged from final assay concentrations of 33.33 μM to 0.56 nM.
The media was then dumped and cells lysed with 20 μL of 1× Lysis buffer from the AlphaScreen SureFire Phospho-ERK 1/2 Kit (Perkin Elmer Cat. #6760617M). The lysis buffer was diluted 5-fold with water before use. The plate was agitated on a shaker for 10 min after which 2 μL was transferred into a 384-well white proxiplate (Perkin Elmer Cat. #6008289). The SureFire assay reagent mix was prepared by mixing 60 parts Reaction Buffer, 10 parts Activation Buffer, 1 part Donor Beads, 1 part Acceptor Beads (Perkin Elmer Cat. #TGRES10K). 3.5 μL/well of this reagent mix was manually added to the proxiplate with a multichannel pipettor. Plates were spun down at 1000 rpm for 2 min, followed by light-protected incubation at room temperature for 2 hours. The plates were read on the Alpha-technology compatible Envision multilabel plate reader using AlphaScreen protocol according to manufacturer's specifications. The agonist effect of compounds was expressed as 100×(average sample-average blank)/(average total-average blank) where sample is the luminescence activity in the presence of test compound, blank is equal to the luminescence activity in the presence of DMSO control and the total is signal induced by 50 μM linolenic acid as reference compound. Activation data for the test compound over a range of concentrations was plotted as percentage activation of the test compound (100%=maximum response). After correcting for background, EC50 values were determined. The EC50 is defined as the concentration of test compound which produces 50% of the maximal response and was quantified using the 4 parameter logistic equation to fit the data.
The human and mouse GPR120-mediated intracellular phosphorylated ERK assays were also established using CHO-K1 cells stably transfected with the short form of human or mouse GPR120 receptor. […]

human GPR120, sequence (Q5NUL3 whole entry): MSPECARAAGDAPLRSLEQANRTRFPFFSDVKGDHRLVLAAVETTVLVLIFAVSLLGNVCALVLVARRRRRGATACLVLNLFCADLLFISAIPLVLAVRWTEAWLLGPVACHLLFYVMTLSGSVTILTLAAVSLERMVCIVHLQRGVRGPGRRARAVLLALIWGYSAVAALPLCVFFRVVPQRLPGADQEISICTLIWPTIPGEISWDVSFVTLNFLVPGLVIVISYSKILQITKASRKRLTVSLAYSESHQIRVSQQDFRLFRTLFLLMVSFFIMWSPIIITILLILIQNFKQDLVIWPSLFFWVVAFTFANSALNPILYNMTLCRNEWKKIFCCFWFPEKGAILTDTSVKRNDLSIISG

| SMILES | pEC50 |
| --- | --- |
| CC(C)Oc1ccc(F)c(-c2ccc(OC[C@@H]3C[C@H]3C(=O)O)c(C(F)(F)F)c2)c1 (racemic) [Example 88, Trans-2-(((2′-fluoro-5′-isopropoxy-3-(trifluoromethyl)-[1,1′-biphenyl]-4-yl)oxy)methyl) cyclopropanecarboxylic acid] | 6.74 |
| COCCc1cc(-c2cc(OC(C)C)ccc2F)ccc1OC[C@@H]1C[C@H]1C(=O)O (racemic) [Example 89, Trans-2-(((2′-fluoro-5′-isopropoxy-3-(2-methoxyethyl)-[1,1′-biphenyl]-4-yl)oxy)methyl) cyclopropanecarboxylic acid] | 5.49 |
| CC(C)Oc1ccc(F)c(-c2ccc(OC[C@@H]3C[C@H]3C(=O)O)c(CC=O)c2)c1 (racemic) [Example 90, Trans-2-(((2′-fluoro-5′-isopropoxy-3-(2-oxoethyl)-[1,1′-biphenyl]-4-yl)oxy)methyl) cyclopropanecarboxylic acid] | 6.03 |
| O=C(O)[C@@H]1C[C@H]1COc1ccc(-c2cc(Oc3ccc(F)c(F)c3)ccc2F)cc1 (racemic) [Example 91, Trans-2-(((5′-(3,4-difluorophenoxy)-2′-fluoro-[1,1′-biphenyl]-4-yl)oxy)methyl) cyclopropanecarboxylic acid] | 6.51 |
| O=C(O)[C@@H]1C[C@H]1COc1ccc(-c2cc(Oc3ccc(Cl)cc3)ccc2F)cc1 (racemic) [Example 92, Trans-2-(((5′-(4-Chlorophenoxy)-2′-fluoro-[1,1′-biphenyl]-4-yl)oxy)methyl) cyclopropanecarboxylic acid] | 6.52 |
| O=C(O)[C@@H]1C[C@H]1COc1ccc(-c2cc(OC3CCC3)ccc2F)cc1 (racemic) [Example 94, Trans-2-(((5′-cyclobutoxy-2′-fluoro-[1,1′-biphenyl]-4-yl)oxy)methyl) cyclopropanecarboxylic acid] | 6.85 |
| O=C(O)[C@@H]1C[C@H]1COc1ccc(-c2cc(OCC3CC3)ccc2F)cc1 (racemic) [Example 95, Trans-2-(((5′-(cyclopropylmethoxy)-2′-fluoro-[1,1′-biphenyl]-4-yl)oxy)methyl)cyclopropanecarboxylic acid] | 6.43 |
| Cc1ccc(Oc2ccc(F)c(-c3ccc(OCC4CC4C(=O)O)c(F)c3)c2)cc1F (racemic) [Example 100, Trans-2-(((2′,3-difluoro-5′-(3-fluoro-4-methylphenoxy)-[1,1′-biphenyl]-4-yl)oxy)methyl)cyclopropanecarboxylic acid] | 6.59 |
| Cc1ccc(Oc2ccc(F)c(-c3ccc(OC[C@@H]4C[C@H]4C(=O)O)c(F)c3)c2)cn1 (racemic) [Example 103, Trans-2-(((2′,3-difluoro-5′-((6-methylpyridin-3-yl)oxy)-[1,1′-biphenyl]-4-yl)oxy)methyl)cyclopropanecarboxylic acid] | 6.77 |
| O=C(O)C1CC1COc1ccc(-c2cc(Oc3cccc(F)c3)cc(F)c2F)cc1F (racemic) [Example 104, Trans-2-(((2′,3,3′-trifluoro-5′-(3-fluorophenoxy)-[1,1′-biphenyl]-4-yl)oxy)methyl)cyclopropanecarboxylic acid] | 7.05 |
| Cc1ccc(Oc2cc(F)c(F)c(-c3ccc(OCC4CC4C(=O)O)c(F)c3)c2)cc1F (racemic) [Example 107] | 6.51 |
| O=C(O)[C@@H]1C[C@H]1COc1ccc(-c2cc(Oc3ccccc3)cnc2Cl)cc1 (racemic) [Example 110, Trans-2-((4-(2-chloro-5-phenoxypyridin-3-yl)phenoxy)methyl)cyclopropanecarboxylic acid] | 6.37 |
| O=C(O)[C@@H]1C[C@H]1COc1ccc(-c2cc(Oc3cccc(F)c3)cnc2Cl)cc1 (racemic) [Example 111, Trans-2-((4-(2-chloro-5-(3-fluorophenoxy)pyridin-3-yl)phenoxy)methyl) cyclopropanecarboxylic acid] | 6.72 |
| Cc1ccc(Oc2ccc(F)c(-c3ccc(OC[C@@H]4C[C@H]4C(=O)O)cc3)c2)cn1 (racemic) [Example 114, Trans-2-(((2′-fluoro-5′-((6-methylpyridin-3-yl)oxy)-[1,1′-biphenyl]-4-yl)oxy)methyl) cyclopropanecarboxylic acid] | 6.85 |
| COc1cc(OC(C)C)cc(-c2ccc(OC[C@@H]3C[C@H]3C(=O)O)cc2)c1 (racemic) [Example 117, Trans-2-(((3′-isopropoxy-5′-methoxy-[1,1′-biphenyl]-4-yl)oxy)methyl) cyclopropanecarboxylic acid] | 5.95 |
| O=C(c1ccccc1)c1cccc(-c2ccc(OC[C@@H]3C[C@H]3C(=O)O)cc2)c1 (racemic) [Example 118, Trans-2-(((3′-benzoyl-[1,1′-biphenyl]-4-yl)oxy)methyl) cyclopropanecarboxylic acid] | 6.34 |
| CC(C)Oc1ccc(Cl)c(-c2ccc(OC[C@@H]3C[C@H]3C(=O)O)cc2)c1 (racemic) [Example 119, Trans-2-(((2′-chloro-5′-isopropoxy-[1,1′-biphenyl]-4-yl)oxy)methyl) cyclopropanecarboxylic acid] | 6.29 |
| CC(C)Oc1cc(Cl)cc(-c2ccc(OC[C@@H]3C[C@H]3C(=O)O)cc2)c1 (racemic) [Example 120, Trans-2-(((3′-chloro-5′-isopropoxy-[1,1′-biphenyl]-4-yl)oxy)methyl) cyclopropanecarboxylic acid] | 6.21 |
| O=C(O)[C@@H]1C[C@H]1COc1ccc(-c2cc(C(F)(F)F)ccc2Cl)cc1 (racemic) [Example 121, Trans-2-(((2′-chloro-5′-(trifluoromethyl)-[1,1′-biphenyl]-4-yl)oxy)methyl)cyclopropanecarboxylic acid] | 5.90 |
| O=C(O)[C@@H]1C[C@H]1COc1ccc(-c2cc(C(F)(F)F)cnc2Cl)cc1 (racemic) [Example 122, Trans-2-((4-(2-chloro-5-(trifluoromethyl)pyridin-3-yl)phenoxy)methyl)cyclopropanecarboxylic acid] | 5.87 |
| O=C(O)[C@@H]1C[C@H]1COc1ccc(-c2cc(C(F)(F)F)ccc2F)cc1 (racemic) [Example 123, Trans-2-(((2′-fluoro-5′-(trifluoromethyl)-[1,1′-biphenyl]-4-yl)oxy)methyl)cyclopropanecarboxylic acid] | 6.17 |
| O=C(O)[C@@H]1C[C@H]1COc1ccc(-c2cc(Cl)cc(C(F)(F)F)c2)cc1 (racemic) [Example 124, Trans-2-(((3′-chloro-5′-(trifluoromethyl)-[1,1′-biphenyl]-4-yl)oxy)methyl)cyclopropanecarboxylic acid] | 5.61 |
| O=C(O)[C@@H]1C[C@H]1CCc1ccc(-c2cccc(-n3cccn3)c2)cc1 (racemic) [Example 128, Trans-2-(2-(3′-(1H-pyrazol-1-yl)-[1,1′-biphenyl]-4-yl)ethyl) cyclopropanecarboxylic acid] | 6.15 |
| O=C(O)[C@@H]1C[C@H]1CCc1ccc(-c2cccc(-n3cccc3)c2)cc1 (racemic) [Example 129, Trans-2-(2-(3′-(1H-pyrrol-1-yl)-[1,1′-biphenyl]-4-yl)ethyl) cyclopropanecarboxylic acid] | 5.80 |
| COC(=O)c1cccc(-c2ccc(CC[C@@H]3C[C@H]3C(=O)O)cc2)c1 (racemic) [Example 130, Trans-2-(2-(3′-(methoxycarbonyl)-[1,1′-biphenyl]-4-yl)ethyl) cyclopropanecarboxylic acid] | 6.10 |
